As usually defined, the IC50 is the concentration that inhibits the measured activity by half.

The assay deals with T1, human BRS-3 (Homo sapiens, UniProt P32247).
T1 construct: expressed in transfected cells
T1 sequence (P32247 1-399): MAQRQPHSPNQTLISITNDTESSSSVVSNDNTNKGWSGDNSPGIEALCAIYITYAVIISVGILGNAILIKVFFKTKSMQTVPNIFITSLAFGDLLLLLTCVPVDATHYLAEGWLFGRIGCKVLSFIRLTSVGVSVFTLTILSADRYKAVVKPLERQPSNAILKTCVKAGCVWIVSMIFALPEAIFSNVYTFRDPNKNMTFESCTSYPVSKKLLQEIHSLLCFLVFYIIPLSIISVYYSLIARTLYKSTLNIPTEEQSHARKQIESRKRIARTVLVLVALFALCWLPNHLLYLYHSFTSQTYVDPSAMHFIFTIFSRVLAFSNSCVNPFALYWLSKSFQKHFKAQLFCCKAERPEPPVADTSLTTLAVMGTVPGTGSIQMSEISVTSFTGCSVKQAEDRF
The experiment in a line: Bombesin Receptor Subtype 3 (BRS3) binding assay (radioligand filtration). The following applies: BRS-3 Receptor Binding Activity for Selected Compounds. On the procedure:
Dissociated cells were collected by centrifuging at 1000 rpm for 10 minutes. Cell pellets were resuspended and homogenized at 4° C. using a Polytron homogenizer (setting 40, 20 stokes) in approximately 10 mL membrane preparation buffer (10 mM Tris pH 7.4, 0.01 mM Pefabloc, 10 μM phosphoramidon and 40 μg/mL Bacitracin) per T175 flask. After centrifugation at 2200 rpm (1000×g) for 10 minutes at 4° C., the supernatant was transferred to a clean centrifuge tube and spun at 18,000 rpm (38,742×g) for 15 minutes. at 4° C. […]
The radioligand, [^3H]-1-{4-[(4,5-difluoro-2-hydroxycarbonylphenyl)phenyl])-2-(4-cyclohexylmethyl-1H-imidazol-2-yl)ethane, was used for binding to receptor membranes generated with BRS3 from other species and was also utilized for the human receptor. […] After incubation for 1-2 hours at room temperature, membrane bound [^3H]-biphenyl was separated from free radiologand by filtering through GF/C filters presoaked in 1% PEI solution. The filters were washed five times with ice-cold washing buffer (50 mM Tris pH 7.4, 10 mM MgCl2, 2.5 mM EDTA and 0.02% Triton X-100). The radioactivity was determined by adding 30 μl of microscintillant/well after each plate was dried at room temperature overnight or placed at 50° C. for 1 hr.
A Packard Top Count was used to read the filter plates. The data in % inhibition of binding was plotted vs. the log molar concentration of receptor ligand (compound). The IC50 was reported as the inflection point of the resulting sigmoidal curve.
For the compound `CC(C)(C)Cc1cnc(CCc2ccc(-c3ccccc3C(=O)O)cc2)[nH]1` [Example 1, 4′-{2-[4-(2,2-Dimethylpropyl)-1H-imidazol-2-yl]ethyl}biphenyl-2-carboxylic Acid], the IC50 amounted to 0.038 µM.
In the case of `O=C(O)c1ccccc1-c1ccc(CCc2ncc(CC3CCCC3)[nH]2)cc1` [Example 26] it was 0.117 µM.
As for `O=C(O)c1cc(F)c(F)cc1-c1ccc(CCc2nc(CC3CCCCC3)c[nH]2)cc1` [Example 94], the figure is 0.02 µM.
As for `CCC(C)(C)Cc1c[nH]c(CCc2ccc(-c3cccc(C)n3)cc2)n1` [Example 110], the IC50 worked out at 0.0063 µM.
As for `CCC(C)(C)Cc1c[nH]c(CCc2ccc(-n3cccn3)cc2)n1` [Example 205, 1-(4-{2-[4-(2,2-dimethylbutyl)-1H-imidazol-2-yl]ethyl}phenyl)-1H-pyrazole], the IC50 is 0.033 µM.
As for `CCC(C)(C)Cc1c[nH]c(CCc2ccc(-c3cccc4cn[nH]c34)cc2)n1` [Example 221], the figure is 0.0048 µM; as for `CCC(C)(C)Cc1c[nH]c(CCc2ccc(N3CCCC[C@@H]3C(=O)O)cc2)n1` [Example 225, (R)-N-(4-{2-[4-(2,2-Dimethylbutyl)-1H-imidazol-2-yl]ethyl}phenyl)piperidine-2-carboxylic acid], 0.018 µM; as for `CCC(C)(C)Cc1c[nH]c(CCc2ccc(N3CCCc4cn[nH]c43)cc2)n1` [Example 226, 7-(4-{2-[5-(2,2-Dimethylbutyl)-1H-imidazol-2-yl]ethyl}phenyl)-4,5,6,7-tetrahydro-1H-pyrazolo[3,4-b]pyridine], 0.018 µM.
Take `CCC(C)(C)Cc1c[nH]c(CCc2ccc(C3CCCCC3C(=O)O)cc2)n1` (stereo not shown) [Example 227, 2-(4-{2-[4-(2,2-Dimethylbutyl)-1H-imidazol-2-yl]ethyl}phenyl)cyclohexanecarboxylic acid]: the IC50 was found to be 0.0028 µM.
As for `CC(C)(Cc1cnc(CCc2ccc(-c3ccc(F)cn3)cc2)[nH]1)C1CC1` [Example 236, 2-(4-{2-[5-(2-Cyclopropyl-2-methylpropyl)-1H-imidazol-2-yl]ethyl}phenyl)-5-fluoropyridine], the figure is 0.025 µM; as for `CCC(CF)(CF)Cc1cnc(CCc2ccc(-c3ccc(F)cn3)cc2)[nH]1` [Example 237, 2-(4-{2-[5-(2,2-Bis(fluoromethyl)butyl)-1H-imidazol-2-yl]ethyl}phenyl)-5-fluoro-pyridine], 0.015 µM.
In the case of `CC(C)(C)Cc1cnc(CCc2ccc(-c3ccccn3)cc2)[nH]1` [Example 240, 2-(4-{2-[4-(2,2-Dimethylpropyl)-1H-imidazol-2-yl]ethyl}phenyl)pyridine] it was 0.116 µM; in that of `CCC(C)(C)Cc1c[nH]c(CCc2ccc(-c3ccccc3OCc3nn[nH]n3)cc2)n1` [Example 246, 5-(4′-{2-[4-(2,2-Dimethylbutyl)-1H-imidazol-2-yl]ethyl}biphenyl-2-yloxymethyl)-1H-tetrazole], 0.0053 µM.

Values taken from patent US8183275B2, “Substituted imidazoles as bombesin receptor subtype-3 modulators” (Merck Sharp & Dohme Corp., priority 2006, dated 2012).
